The values below come from US8940756B2, “Dihydronaphthyridines and related compounds useful as kinase inhibitors for the treatment of proliferative diseases” (Deciphera Pharmaceuticals, Inc., priority 2012, dated 2015).

For test [1], the target named is T1, c-KIT kinase (Seq ID no. 1) (Homo sapiens, UniProt P10721).
T1 construct: GST (N); TEV cleavage site (N); purchased deCODE Biostructures
Description: c-KIT Kinase Assay (pyruvate kinase/lactate dehydrogenase coupled). Format: biochemical. Conditions: enzymatic assay, ATP 200 μM; read-out: KIT (wt).

For test [2], the target named is T2, c-KIT D816V kinase (Seq ID no. 4) (Homo sapiens, UniProt P10721, D816V).
T2 construct: D816V c-KIT (residues T544-V976 with N-terminal GST fusion, 16 nM); purchased deCODE Biostructures
Description: c-KIT D816V kinase Assay. Format: biochemical. Conditions: enzymatic assay, ATP 200 uM.

The target of test [3] is T3, c-KIT VVDV kinase (V559 and V560 deleted and D816V mutation, Seq ID no. 5) (Homo sapiens, UniProt P10721, D816V/DEL559-560).
T3 construct: This construct contains residues T544-V976 of cKit (except for the D816V mutation and the deletion of residues V559 and V560); GST (N); TEV cleavage site (N); purchased deCODE Biostructures
The experiment in a line: cKIT-VVDV Kinase Assay. Format: biochemical. Conditions: enzymatic assay, ATP 200 uM. Here is the method: In this assay, the oxidation of NADH (measured by decrease in absorbance at 340 nm) was continuously monitored spectrophotometrically. […] The inhibition reaction was started by mixing serial diluted test compound with the above reaction mixture. The absorption at 340 nm was monitored continuously for 5 hours at 30° C. on Synergy 2 plate reader (BioTech). […] The protein construct was prepared by deCODE Biostructures using procedures known in the art. This construct contains […] of cKit (except for the D816V […]), an N-terminal tag, a GST-fusion sequence and a TEV cleavage site. This construct is identical to Seq ID no. 1 except for the D816V […].

The target of test [4] is T4, Phospho-KIT (Tyr719) in GIST T1 cells (Homo sapiens, UniProt P10721, DEL560-578).
T4 construct: endogenous in cells; host or cells: GIST T1
The experiment in a line: GIST T1 KIT Western Blot. It is filed as cell-based. Conditions: 4 hours, read-out: pKIT suppression by western blot analysi GIST T1. Here is the method:
GIST48, GIST430, and GIST882 cells were obtained from J. Fletcher (Brigham and Women's Hospital, Boston, Mass.). GIST T1 cells were obtained from B. Rubin (Cleveland Clinic, Cleveland, Ohio) and Professor Takahiro Taguchi (Kochi Medical School, Nankoku, Kochi, Japan). […] GIST430 cells were grown in Ham's F10 medium supplemented with 15% characterized fetal bovine serum (Invitrogen, Carlsbad, Calif.), 30 mg/L bovine pituitary extract (BD Biosciences, San Jose, Calif.), 0.5% Mito+ serum extender (BD Biosciences, San Jose, Calif.), 1 unit/mL penicillin G, 1 μg/ml streptomycin, and 0.29 mg/mL L-glutamine at 37° C., 5% CO2, 95% humidity. GIST T1 cells were grown in DMEM medium supplemented with 10% characterized fetal bovine serum (Invitrogen, Carlsbad, Calif.), 1 unit/mL penicillin G, 1 ng/ml streptomycin, and 0.29 mg/mL L-glutamine at 37° C., 5% CO2, and 95% humidity. […]
One hundred twenty-five thousand cells were added per well in a 24-well tissue-culture treated plate. […] Phospho-KIT (Tyr719) was detected using an antibody from Cell Signaling Technology (Beverly, Mass.), ECL Plus detection reagent (GE Healthcare, Piscataway, N.J.) and a Molecular Devices Storm 840 phosphorimager in fluorescence mode. […] IC50 values were calculated using Prism software (Graphpad, San Diego, Calif.).
(Immunoblotting shows a protein as a band on a membrane.)

T1 sequence (P10721 with tags, fused parts or gaps): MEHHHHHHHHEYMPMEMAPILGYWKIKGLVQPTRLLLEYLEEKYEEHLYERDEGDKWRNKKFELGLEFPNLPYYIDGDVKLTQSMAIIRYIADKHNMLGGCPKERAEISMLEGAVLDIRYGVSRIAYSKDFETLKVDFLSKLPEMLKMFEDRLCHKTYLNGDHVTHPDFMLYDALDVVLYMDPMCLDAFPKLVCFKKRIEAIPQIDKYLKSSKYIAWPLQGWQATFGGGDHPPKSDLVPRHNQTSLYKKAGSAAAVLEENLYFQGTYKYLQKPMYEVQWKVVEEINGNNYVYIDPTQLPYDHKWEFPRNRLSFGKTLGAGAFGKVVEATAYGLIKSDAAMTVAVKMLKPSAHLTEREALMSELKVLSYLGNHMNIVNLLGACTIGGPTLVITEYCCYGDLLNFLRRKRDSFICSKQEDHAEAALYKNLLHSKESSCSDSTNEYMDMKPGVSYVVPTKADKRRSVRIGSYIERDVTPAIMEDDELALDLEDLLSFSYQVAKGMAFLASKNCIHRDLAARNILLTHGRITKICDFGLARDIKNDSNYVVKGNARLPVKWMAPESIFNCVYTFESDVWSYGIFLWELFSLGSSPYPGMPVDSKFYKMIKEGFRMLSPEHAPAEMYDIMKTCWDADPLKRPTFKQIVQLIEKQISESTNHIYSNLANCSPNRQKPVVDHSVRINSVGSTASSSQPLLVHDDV
T2 sequence (P10721 544-976 D816V): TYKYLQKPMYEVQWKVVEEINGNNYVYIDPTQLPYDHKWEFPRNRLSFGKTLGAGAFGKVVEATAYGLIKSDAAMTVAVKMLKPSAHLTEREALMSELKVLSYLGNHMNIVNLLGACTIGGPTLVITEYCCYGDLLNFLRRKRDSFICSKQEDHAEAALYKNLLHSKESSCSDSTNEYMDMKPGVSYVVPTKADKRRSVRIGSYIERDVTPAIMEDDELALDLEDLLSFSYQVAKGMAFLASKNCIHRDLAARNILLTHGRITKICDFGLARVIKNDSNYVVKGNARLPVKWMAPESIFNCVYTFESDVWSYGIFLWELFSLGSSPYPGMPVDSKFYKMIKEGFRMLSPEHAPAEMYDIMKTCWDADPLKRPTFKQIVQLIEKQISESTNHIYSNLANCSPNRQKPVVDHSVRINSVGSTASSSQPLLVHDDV
T3 sequence (P10721 with tags, fused parts or gaps DEL559-560/D816V): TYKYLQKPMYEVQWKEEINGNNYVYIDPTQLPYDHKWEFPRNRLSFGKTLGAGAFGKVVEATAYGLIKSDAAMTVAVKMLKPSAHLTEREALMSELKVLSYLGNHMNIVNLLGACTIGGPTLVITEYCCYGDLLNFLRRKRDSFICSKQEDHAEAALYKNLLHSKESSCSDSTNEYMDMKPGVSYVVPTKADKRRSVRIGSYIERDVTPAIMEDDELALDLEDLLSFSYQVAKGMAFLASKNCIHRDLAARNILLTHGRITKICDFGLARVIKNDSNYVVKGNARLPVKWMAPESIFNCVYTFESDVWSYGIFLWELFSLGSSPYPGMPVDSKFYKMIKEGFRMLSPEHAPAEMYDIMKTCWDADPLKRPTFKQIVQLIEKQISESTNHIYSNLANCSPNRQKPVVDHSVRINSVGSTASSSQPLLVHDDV
T4 sequence (P10721 with tags, fused parts or gaps DEL560-578): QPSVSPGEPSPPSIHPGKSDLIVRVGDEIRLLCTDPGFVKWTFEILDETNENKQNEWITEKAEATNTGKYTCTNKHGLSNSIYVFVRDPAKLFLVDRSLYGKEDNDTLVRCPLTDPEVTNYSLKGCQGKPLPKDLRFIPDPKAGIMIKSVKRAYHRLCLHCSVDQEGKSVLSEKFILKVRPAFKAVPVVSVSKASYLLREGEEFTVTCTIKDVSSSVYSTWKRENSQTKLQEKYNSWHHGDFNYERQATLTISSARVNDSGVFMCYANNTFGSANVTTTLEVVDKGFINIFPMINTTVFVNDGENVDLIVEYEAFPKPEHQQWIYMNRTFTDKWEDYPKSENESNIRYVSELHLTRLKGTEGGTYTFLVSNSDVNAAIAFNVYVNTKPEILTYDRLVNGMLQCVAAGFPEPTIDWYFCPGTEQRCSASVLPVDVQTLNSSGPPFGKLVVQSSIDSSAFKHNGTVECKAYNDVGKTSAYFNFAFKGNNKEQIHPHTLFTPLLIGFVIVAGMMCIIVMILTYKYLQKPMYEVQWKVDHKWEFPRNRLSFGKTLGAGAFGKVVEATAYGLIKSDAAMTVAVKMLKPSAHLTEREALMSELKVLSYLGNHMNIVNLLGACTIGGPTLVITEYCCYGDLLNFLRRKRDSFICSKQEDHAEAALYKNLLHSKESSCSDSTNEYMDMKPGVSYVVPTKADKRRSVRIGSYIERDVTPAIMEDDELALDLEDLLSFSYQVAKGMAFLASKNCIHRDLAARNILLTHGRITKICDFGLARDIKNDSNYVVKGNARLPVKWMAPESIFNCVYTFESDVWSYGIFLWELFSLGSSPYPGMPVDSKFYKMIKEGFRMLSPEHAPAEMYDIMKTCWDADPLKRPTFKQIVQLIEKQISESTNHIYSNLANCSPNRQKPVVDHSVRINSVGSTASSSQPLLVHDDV

With `CCn1c(=O)c(-c2cc(NC(=O)Nc3ccccc3)c(F)cc2Cl)cc2cnc(N)cc21` [Example 21, 1-(5-(7-amino-1-ethyl-2-oxo-1,2-dihydro-1,6-naphthyridin-3-yl)-4-chloro-2-fluorophenyl)-3-phenylurea], the IC50 in test [1] was less than 10 nM; in test [2], 10 to 100 nM; in test [3] it was less than 10 nM; in test [4] it was less than 10 nM.
Regarding `CCn1c(=O)c(-c2cc(NC(=O)Nc3cccc(CN4CCN(C)CC4)c3)c(F)cc2Cl)cc2cnc(NC)cc21` [Example 79, 1-(4-chloro-5-(1-ethyl-7-(methylamino)-2-oxo-1,2-dihydro-1,6-naphthyridin-3-yl)-2-fluorophenyl)-3-(3-((4-methylpiperazin-1-yl)methyl)phenyl)urea], the figures for the IC50 in test [1], in test [2] and in test [3] were less than 10 nM, 100 to 1000 nM and greater than 1000 nM, respectively.
Consider `CCn1c(=O)c(-c2cc(NC(=O)Nc3cc(F)cc(CN4CCN(C)CC4)c3)c(F)cc2Cl)cc2cnc(NC)cc21` [Example 88, 1-(4-chloro-5-(1-ethyl-7-(methylamino)-2-oxo-1,2-dihydro-1,6-naphthyridin-3-yl)-2-fluorophenyl)-3-(3-fluoro-5-((4-methylpiperazin-1-yl)methyl)phenyl)urea], for which the values for the IC50 in test [1], in test [2] and in test [4] were less than 10 nM, 100 to 1000 nM and less than 10 nM, respectively.
